Reference: US20230211362A1, “A METHOD OF COATING AN OCULAR PROSTHETIC DEVICE AND OTHER PROSTHETICS” (UEA Enterprises Limited, priority 2020, published 2023)
Structures can show the parent of a compound that is named as a salt.

How the values were obtained:
[1] = In vitro drug release tests of nanoelectrosprayed contact lenses in PBS 7.4 under sink conditions, HPLC (Example 4); type: physicochemical; conditions: zein film on contact lens (BIM1); 2 ml PBS 7.4, 35° C., 125 rpm; FIG. 32 bottom
Description: Glass vials containing 2 ml PBS 7.4 was incubated in a shaking incubator set at 35° C. with 125 rpm for 2 hours before in vitro experiments. All in vitro experiments were performed under sink conditions (i.e., the drug concentration within the in vitro dissolution medium was more than 10 times diluted in comparison to the saturated solubility of the drug in the medium). The nanoelectrosprayed lenses were placed into the vial and an aliquot of 1.5 ml was replaced with fresh PBS at regular intervals up to 24 hours (for KF the intervals were 0.5, 1, 3, 6, and 24 hours; for BIM the intervals were 0.25, 0.5, 0.75, 1, 2, 3, 4, 5, 6, and 24 hours). […] The total amount of ketotifen and bimatoprost sprayed on a contact lens was determined by the sum of the cumulative amount of the drug released during the in vitro study and the amount obtained from extraction.
The high-performance liquid chromatography system (Jasco, Japan) consists of a pump (PU-1580), an autosampler (AS-2055 Plus) and a 4-channel UV detector (UV-1570M). A Waters C18 column (250×4.6 mm i.d.; 5 μm particle size) was used under ambient conditions. The mobile phase of ketotifen fumarate and bimatoprost was prepared according to a method adopted from the literature. The mobile phase for ketotifen comprised methanol and 0.2% triethylamine (v/v) (80:20), running with 1 ml/min flow rate. […]

[2] = cited from earlier work

Compound	bimatoprost release after 6 hours [1]	bimatoprost released in the first 30 minutes [1]	Log P [2]	pKa (acid) [2]	solubility in aqueous solutions ([2]; slightly soluble in aqueous solutions)
CCNC(=O)CCC/C=C\C[C@@H]1[C@@H](/C=C/[C@@H](O)CCc2ccccc2)[C@H](O)C[C@@H]1O [bimatoprost]	98%	51%	–	–	–
CN1CCC(=C2c3ccccc3CC(=O)c3sccc32)CC1 [Ketotifen fumarate]	–	–	3.4	12.3	7.87 µg/mL
